The record followed here is patent US20250032477A1, “COMPOUNDS, PHARMACEUTICAL COMPOSITIONS, AND METHODS FOR THE TREATMENT, PREVENTION, OR MANAGEMENT OF HYPERPROLIFERATIVE DISORDERS” (VINCERX PHARMA GMBH, priority 2021, published 2025).

Series [1] concerns 786-O. As to the kind of experiment: Cytotoxicity in vitro in the presence and absence of elastase (MTT). The series is classed as cell-based, human. In outline:
(§1)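 Cells seeded 24 h beforehand, then treated in triplicate with compound (10^−5 to 10^−13 M) alone or with 10 nM elastase for 72 h at 37 °C. Proliferation measured by MTT (4 h reagent, overnight lysis, absorbance 570 nm), normalised to untreated cells.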

Series [2] has as its system HT29. The series is described as above. The class given is cell-based, human. The procedure, abridged:
as §1

Series [3] deals with NCI H292. Described as above. The class given is cell-based, human. The procedure, abridged: as §1
The subject of series [4] is SUM149. The series is described as above. The series is classed as cell-based. The procedure, abridged:
as §1

The format of series [5] is physicochemical. The text has this:
pH dependent ring-opening by hydrolysis of the lactone ring is an issue in the camptothecin class of agents. It is a pH dependent equilibrium between closed lactone form and ring-opened hydroxy acid form which is shifted to the closed ring at acidic pH and to the opened form under basic conditions. Only the lactone form is active. […] The closed and hydrolyzed open forms are differentiable by mass using the LC-MS methods described herein.
Method for acidic eluent: System MS: Waters TOF instrument; System UPLC: Waters Acquity I-CLASS; Column: Waters Acquity UPLC HSS T3 1.8 μm 50×1 mm; Eluent A: 1 L Water+0.100 ml 99% Formic acid (pH 3.4); Eluent B: 1 L Acetonitrile+0.100 ml 99% Formic acid; Gradient: 0.0 min 90% A→1.2 min 5% A→2.0 min 5% A Oven: 50° C.; Flow: 0.40 ml/min; UV-Detection: 210 nm.
Method for basic eluent: System MS: Thermo Scientific FT-MS; System UHPLC+: Thermo Scientific UltiMate 3000; Column: Waters, BEH c18 1.7μ, 2.1×50 mm, Eluent A: 1 L Water+1.0 mL (25% Ammonia) (pH of eluent A=10.2); Eluent B: 1 L Acetonitrile; Gradient: 0.0 min 5% B→2.5 min 95% B→3.5 min 95% B; Oven: 50° C.; Flow: 0.90 ml/min; UV-Detection: 210 nm/Optimum Integration Path 210-300 nm.

Where two headings read alike, the source gives them in different places. Some results are limits rather than exact numbers.

For `CCCNC(=O)Nc1cccc(S(=O)(=O)Nc2cccc([C@@H](CC(=O)[O-])NC(=O)Nc3ccc(NC(=O)NCCOCCOCCOCCC(=O)N[C@@H](CC(=O)[O-])C(=O)N4CCC[C@H]4C(=O)N[C@H](C(=O)O[C@]4(CC)C(=O)OCc5c4cc4n(c5=O)Cc5c-4nc4cc(F)c(C)c6c4c5[C@@H](NC(C)=O)CC6)C(C)C)cc3)c2)c1.[Na+].[Na+]` [Compound 2, disodium (1S,9S)-1-acetamido-9-ethyl-5-fluoro-4-methyl-10,13-dioxo-2,3,9,10,13,15-hexahydro-1H,12H-benzo[de]pyrano[3′,4′:6,7]indolizino[1,2-b]quinolin-9-yl 1-[(2S)-2-(carboxylatomethyl)-17-{4-[({(1R)-2-carboxylato-1-[3-({3-[(propylcarbamoyl)amino]benzene-1-sulfonyl}amino)phenyl]ethyl}carbamoyl)amino]anilino}-4,17-dioxo-7,10,13-trioxa-3,16-diazaheptadecanan-1-oyl]-L-prolyl-L-valinate], the IC50 was 0.01 to 0.1 nM in series [1] (786-O cells, with 10 nM elastase, 72 h, MTT, read-out: 786-O IC50 w elastase); 10 to 100 nM in series [1] (786-O cells, without elastase, 72 h, MTT, read-out: 786-O IC50 w/o); 0.1 to 1 nM in series [2] (HT29 cells, with 10 nM elastase, 72 h, MTT, read-out: HT29 IC50 w elastase); more than 100 nM in series [2] (HT29 cells, without elastase, 72 h, MTT, read-out: HT29 IC50 w/o); 0.1 to 1 nM in series [3] (NCI H292 cells, with 10 nM elastase, 72 h, MTT, read-out: NCI H292 IC 50 w elastase); 1.1 to 10 nM in series [3] (NCI H292 cells, without elastase, 72 h, MTT, read-out: NCI H292 IC 50 w/o). The IC50 was 0.01 to 0.1 nM in series [4] (SUM149 cells, with 10 nM elastase, 72 h, MTT, read-out: SUM149 IC50 w elastase) and 1.1 to 10 nM in series [4] (SUM149 cells, without elastase, 72 h, MTT, read-out: SUM149 IC50 w/o). The “Lactone ring form detected by LC-MS, acidic eluent” value in series [5] (acidic eluent (pH 3.4), UV and mass detection) was “only the closed form (201)”. The “Lactone ring form detected by LC-MS, basic eluent” value in series [5] (basic eluent (pH of eluent A=10.2), UV and mass detection) is “No open form (203) was detected”.

On to `CCCNC(=O)Nc1cccc(S(=O)(=O)Nc2cccc([C@@H](CC(=O)O)NC(=O)Nc3ccc(NC(=O)NCCOCCOCCOCCC(=O)N[C@@H](CC(=O)O)C(=O)N4CCC[C@H]4C(=O)N[C@H](C(=O)O[C@]4(CC)C(=O)OCc5c4cc4n(c5=O)Cc5c-4nc4cc(F)c(C)c6c4c5[C@@H](N)CC6)C(C)C)cc3)c2)c1` [Compound 4, (1S,9S)-1-amino-9-ethyl-5-fluoro-4-methyl-10,13-dioxo-2,3,9,10,13,15-hexahydro-1H,12H-benzo[de]pyrano[3′,4′:6,7]indolizino[1,2-b]quinolin-9-yl N-(14-{4-[({(1R)-2-carboxy-1-[3-({3-[(propylcarbamoyl)amino]benzene-1-sulfonyl}amino)phenyl]ethyl}carbamoyl)amino]anilino}-14-oxo-4,7,10-trioxa-13-azatetradecanan-1-oyl)-L-alpha-aspartyl-L-prolyl-L-valinate], for which the IC50 in series [1] (read-out: 786-O IC50 w elastase) is 0.01 to 0.1 nM; in series [1] (read-out: 786-O IC50 w/o), 1.1 to 10 nM; in series [2] (read-out: HT29 IC50 w elastase), 0.01 to 0.1 nM; in series [2] (read-out: HT29 IC50 w/o), 10 to 100 nM; in series [3] (read-out: NCI H292 IC 50 w elastase) it was 0.01 to 0.1 nM; in series [3] (read-out: NCI H292 IC 50 w/o) it was 1.1 to 10 nM. For the same compound, the values for the IC50 in series [4] (read-out: SUM149 IC50 w elastase) and in series [4] (read-out: SUM149 IC50 w/o) were less than 0.01 nM and 1.1 to 10 nM, respectively. Also, the “Lactone ring form detected by LC-MS, acidic eluent” value in series [5] (pH 3.4) is on record as “only the closed form (301) was detected”.
